# Assay results: patent US8911751B2, “Compositions for nasal delivery” (Yissum Research Development Company of the Hebrew …, priority 2005, dated 2014)
# System: Female C57Bl/6 mice
# Assay: Pentobarbitone-induced sleeping in mice (Example 34)
# Format: in vivo
# Conditions: oral Brotizolam 0.25 mg/kg, 5 minutes before sleep induction; compared to control
compound,measurement,value
"Cc1nnc2n1-c1sc(Br)cc1C(c1ccccc1Cl)=NC2 [Oral Brotizolam, 8-bromo-6-(o-chlorophenyl)-1-methyl-4H-s-triazolo[3,4c]thieno[2,3e]1,4-diazepine]",latency (onset of the loss of righting reflex),no significant effect
same,total sleeping time (TST),no significant effect
